The values below come from US20190046556A1, “Methods and Pharmaceutical Compositions for the Prophylactic Treatment of Peritoneal Carcinomatosis” (INSERM (Institut National de la Sante et de la Recherche …, priority 2016, published 2019).

For the assay, the system named is OVCAR. It is filed as in vivo. Conditions: 21 days, nude mice. From the text: For that experiment, a human ovarian cancer cell line, named OVCAR is used, as prior exposed for the CT-26 cells. The only difference is the mice receiving cell injection, because OVACR is a human cancer cell, a nude mice animal is used because of immune deficiency of the animal.

Regarding `O=C1[O][Pt]2([NH][C@@H]3CCCC[C@H]3[NH]2)[O]C1=O` [Oxaliplatin], the “Mean PCI (peritoneal cancer index)” value is on record as 3,7.
